Where two headings read alike, the source gives them in different places.

As usually defined, the IC50 is the concentration at which inhibition is half-maximal.

The test system of assay [1] is B16F10 mouse melanoma cells. Kind of assay: B16F10 IFNγ-induced cellular growth inhibition assay. The note with it: Mus musculus, B16-F10, 33 μM compound. Format: cell-based. How it is done: B16F10 mouse melanoma cells (ATCC Cat ^#CRL-6475, Manassas, Va.) were seeded at a density of 500 cells per well in a 384-well clear bottom plate (Corning Cat^# 3765, Corning, N.Y.) in 25 μL total volume of DMEM+10% FBS (Sigma Cat ^#D6429 and Sigma Cat ^#F4135, St. Louis, Mo.). Cells were allowed to adhere overnight at 37° C.+5% CO2. On the following day, 12.5 μL of mouse IFNγ (RD systems Cat485-MI/CF, Minneapolis, Minn.) was added to half of the plate (columns 13-24) at a concentration of 2 ng/mL for a final assay concentration of 0.5 ng/mL of IFNγ. Media only (12.5 μL of DMEM+10% FBS) was added to the remainder of the plate (columns 1-12). Next, compounds resuspended in DMSO (Sigma Cat ^#D2650) at 100 mM were diluted in semi-log dilutions in DMSO ranging from 100 mM to 0.001 mM and DMSO only controls were included. The compound/DMSO dilutions were further diluted 1:250 in DMEM+10% FBS, and 12.5 μL of these dilutions were added in triplicates to cells of both treatment arms (with and without IFNγ). Final compound concentrations ranged from 100 μM to 0.001 μM with a final DMSO concentration of 0.1%. Compounds were only dosed in the inner 240 wells, avoiding the outer 2-well perimeter of the plate to minimize edge effects. Finally, the plate was loaded into an IncuCyte® S3 Live Cell Analysis System (Essen Bioscience-Sartorius, Ann Arbor, Mich.) maintained in a 37° C.+5% CO2 incubator, allowed to equilibrate for 2 hours, and imaged every 6 hours for 5 days. Confluence over time for compound dilutions in the presence and absence of IFNγ was measured. Growth inhibition values were obtained when the “DMSO/no IFNγ” control reached confluence >95%. At these time points, the percent growth inhibition of each compound at the indicated concentration was calculated relative to the “DMSO/with IFNγ” control.

Assay [2] concerns the target T1, His tagged PTPN2 (TC45) protein (Homo sapiens, UniProt P17706).
T1 construct: made in house
T1 sequence (P17706 with tags, fused parts or gaps isoform P17706-2): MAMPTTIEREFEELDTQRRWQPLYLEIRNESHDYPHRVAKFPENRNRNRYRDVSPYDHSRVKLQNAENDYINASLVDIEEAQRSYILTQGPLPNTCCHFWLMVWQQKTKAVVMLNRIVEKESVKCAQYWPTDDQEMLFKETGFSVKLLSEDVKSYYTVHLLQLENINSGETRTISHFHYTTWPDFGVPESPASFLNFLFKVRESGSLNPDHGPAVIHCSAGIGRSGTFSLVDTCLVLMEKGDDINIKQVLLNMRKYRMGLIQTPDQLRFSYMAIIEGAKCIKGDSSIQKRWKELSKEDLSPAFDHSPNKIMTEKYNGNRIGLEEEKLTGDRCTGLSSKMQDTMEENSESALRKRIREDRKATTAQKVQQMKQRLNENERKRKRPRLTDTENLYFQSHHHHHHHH
Kind of assay: Mobility shift assay (MSA) for potency of PTPN2 inhibitors. Format: biochemical. The conditions noted are these: read-out: PTPN2 MSA IC50. How it is done:
Compound activity was determined using in house His tagged PTPN2 (TC45) protein (SEQ ID NO: 1) in an in vitro enzymatic reaction. The enzymatic assay used to determine activity was a mobility shift assay using a LabChip EZ Reader by Caliper Life Sciences. The enzymatic reaction was carried out in assay buffer (50 mM HEPES pH 7.5, 1 mM EGTA, 10 mM EDTA, 0.01% Tween® 20, and 2 mM DTT). The compounds were dispensed on a white 384 well ProxiPlate™ (PerkinElmer Catalog #6008289) plate using the Labcyte Echo at varying concentrations (12 point, 1:3 dilution). The enzyme (at 0.5 nM) was incubated with compound for 10 minutes at room temperature. Then the substrate (phosphorylated insulin receptor probe sequence: ((OG488)-(NH—CH2—CH2—O—CH2—CH2—O—CH2—CO)-T-R-D-I-(PY)-E-T-D-Y-Y-R-K-K-NH2) (SEQ ID NO: 2) was added at […] to the plates and incubated for another 10 minutes at room temperature. Finally, a quench solution (water and 4-bromo-3-(2-oxo-2-propoxyethoxy)-5-(3-{[1-(phenylmethanesulfonyl)piperidin-4-yl]amino}phenyl)thiophene-2-carboxylic acid) was added to the plates, which were then run on the EZ Reader (excitation 488 nm, emission 530 nm) to measure % conversion (the amount of phosphorylated substrate which was de-phosphorylated by PTPN2). […] The % inhibition was then used to calculate the IC50 values.

The mark [3] stands for this setting: +0.5 ng/mL IFNγ, relative to DMSO control, read-out: % B16F10 growth inhibition (+0.5 ng/mL IFNγ) @ 33 μM.
The mark [4] stands for this setting: no IFNγ, read-out: % B16F10 growth inhibition (no IFNγ) @ 33 μM.

On to `O=C1CN(c2c(O)cc3ccc(OCCN4CCOCC4)cc3c2F)S(=O)(=O)N1` [Compound 100, 5-{1-fluoro-3-hydroxy-7-[2-(morpholin-4-yl)ethoxy]naphthalen-2-yl}-1λ^6,2,5-thiadiazolidine-1,1,3-trione], for which the inhibition at 33 µM in assay [1] (setting [3]) is above 90%; in assay [1] (setting [4]), below 25%. The IC50 in assay [2] lay in the range of 1 to 10 nM.
For `CC(C)NC(=O)Oc1ccc2cc(O)c(N3CC(=O)NS3(=O)=O)c(F)c2c1` [Compound 103, 8-fluoro-6-hydroxy-7-(1,1,4-trioxo-1λ^6,2,5-thiadiazolidin-2-yl)naphthalen-2-yl propan-2-ylcarbamate], in that order: 60 to 90%, below 25% and 1 to 10 nM.
Taken in the same sequence, the figures for `O=C1CN(c2c(O)cc3ccc4occc4c3c2F)S(=O)(=O)N1` [Compound 104, 5-(9-fluoro-7-hydroxynaphtho[2,1-b]furan-8-yl)-1λ^6,2,5-thiadiazolidine-1,1,3-trione] were 25 to 59%, below 25% and 1 to 10 nM.
On to `O=C1CN(c2c(O)cc3ccc(OCCN4CCC4)cc3c2F)S(=O)(=O)N1` [Compound 105, 5-{7-[2-(azetidin-1-yl)ethoxy]-1-fluoro-3-hydroxynaphthalen-2-yl}-1λ^6,2,5-thiadiazolidine-1,1,3-trione], for which the inhibition at 33 µM in assay [1] (setting [3]) was 60 to 90%; in assay [1] (setting [4]) it was below 25%. The IC50 in assay [2] was in the range of 1 to 10 nM.
Taken in the same sequence, the figures for `[2H]c1c(O)c(N2C([2H])([2H])C(=O)NS2(=O)=O)c(F)c2cc(OC)ccc12` [Compound 106, 5-[1-fluoro-3-hydroxy-7-methoxy(4-^2H)naphthalen-2-yl](4,4-^2H2)-1λ^6,2,5-thiadiazolidine-1,1,3-trione] were 60 to 90%, below 25% and 1 to 10 nM.
Turning to `CNc1ccc2cc(O)c(N3CC(=O)NS3(=O)=O)c(F)c2c1` [Compound 107, 5-[1-fluoro-3-hydroxy-7-(methylamino)naphthalen-2-yl]-1λ^6,2,5-thiadiazolidine-1,1,3-trione], the results for the inhibition at 33 µM in assay [1] (setting [3]) and in assay [1] (setting [4]) were 60 to 90% and below 25%, respectively. Moreover, the IC50 in assay [2] was 10 to 100 nM.
For `N#CCCCCOc1ccc2cc(O)c(N3CC(=O)NS3(=O)=O)c(F)c2c1` [Compound 111, 5-{[8-fluoro-6-hydroxy-7-(1,1,4-trioxo-1λ^6,2,5-thiadiazolidin-2-yl)naphthalen-2-yl]oxy}pentanenitrile], in that order: 60 to 90%, below 25% and below 1 nM.
For the compound `O=C1CN(c2c(O)cc3ccc(C4=CCN(S(=O)(=O)CCCC(F)(F)F)C4)cc3c2F)S(=O)(=O)N1` [Compound 290, 5-{1-fluoro-3-hydroxy-7-[1-(4,4,4-trifluorobutane-1-sulfonyl)-2,5-dihydro-1H-pyrrol-3-yl]naphthalen-2-yl}-1λ^6,2,5-thiadiazolidine-1,1,3-trione], in assay [2], the IC50 was below 1 nM.
Same read-out and setting: for `CCCCS(=O)(=O)N1CC=C(c2ccc3cc(O)c(N4CC(=O)NS4(=O)=O)c(F)c3c2)C1` [Compound 291, 5-{7-[1-(butane-1-sulfonyl)-2,5-dihydro-1H-pyrrol-3-yl]-1-fluoro-3-hydroxynaphthalen-2-yl}-1λ^6,2,5-thiadiazolidine-1,1,3-trione] the value was below 1 nM; for `N#CCCCCS(=O)(=O)N1CC=C(c2ccc3cc(O)c(N4CC(=O)NS4(=O)=O)c(F)c3c2)C1` [Compound 293, 5-{3-[8-fluoro-6-hydroxy-7-(1,1,4-trioxo-1λ^6,2,5-thiadiazolidin-2-yl)naphthalen-2-yl]-2,5-dihydro-1H-pyrrole-1-sulfonyl}pentanenitrile], below 1 nM; for `O=C1CN(c2c(O)cc3ccc(C4=CCN(S(=O)(=O)c5ccoc5)C4)cc3c2F)S(=O)(=O)N1` [Compound 312, 5-{1-fluoro-7-[1-(furan-3-sulfonyl)-2,5-dihydro-1H-pyrrol-3-yl]-3-hydroxynaphthalen-2-yl}-1λ^6,2,5-thiadiazolidine-1,1,3-trione], below 1 nM.
The same measure, in the same setting: then `O=C1CN(c2c(O)cc3ccc(C4=CCN(S(=O)(=O)c5ccsc5)C4)cc3c2F)S(=O)(=O)N1` [Compound 314, 5-{1-fluoro-3-hydroxy-7-[1-(thiophene-3-sulfonyl)-2,5-dihydro-1H-pyrrol-3-yl]naphthalen-2-yl}-1λ^6,2,5-thiadiazolidine-1,1,3-trione], with below 1 nM; and `O=C1CN(c2c(O)cc3ccc(C4=CCN(S(=O)(=O)c5ccccc5)C4)cc3c2F)S(=O)(=O)N1` [Compound 315, 5-{7-[1-(benzenesulfonyl)-2,5-dihydro-1H-pyrrol-3-yl]-1-fluoro-3-hydroxynaphthalen-2-yl}-1λ^6,2,5-thiadiazolidine-1,1,3-trione], with below 1 nM; and `O=C1CN(c2c(O)cc3ccc(C4=CCN(S(=O)(=O)C5CCC5)C4)cc3c2F)S(=O)(=O)N1` [Compound 316, 5-{7-[1-(cyclobutanesulfonyl)-2,5-dihydro-1H-pyrrol-3-yl]-1-fluoro-3-hydroxynaphthalen-2-yl}-1λ^6,2,5-thiadiazolidine-1,1,3-trione], with below 1 nM.
The same measure, in the same setting: for `COC(=O)[C@@H](N)CCOc1ccc2cc(O)c(N3CC(=O)NS3(=O)=O)c(F)c2c1` [Compound 317, methyl (2S)-2-amino-4-{[8-fluoro-6-hydroxy-7-(1,1,4-trioxo-1λ^6,2,5-thiadiazolidin-2-yl)naphthalen-2-yl]oxy}butanoate] the value was 1 to 10 nM; for `Cc1n[nH]c(C)c1COc1ccc2cc(O)c(N3CC(=O)NS3(=O)=O)c(F)c2c1` [Compound 318, 5-{7-[(3,5-dimethyl-1H-pyrazol-4-yl)methoxy]-1-fluoro-3-hydroxynaphthalen-2-yl}-1λ^6,2,5-thiadiazolidine-1,1,3-trione], 1 to 10 nM; for `Cc1n[nH]c(C)c1-c1ccc2cc(O)c(N3CC(=O)NS3(=O)=O)c(F)c2c1` [Compound 319, 5-[7-(3,5-dimethyl-1H-pyrazol-4-yl)-1-fluoro-3-hydroxynaphthalen-2-yl]-1λ^6,2,5-thiadiazolidine-1,1,3-trione], 1 to 10 nM.
Regarding `O=C1CN(c2c(O)cc3ccc(OCCC4CCCCC4)cc3c2F)S(=O)(=O)N1` [Compound 320, 5-[7-(2-cyclohexylethoxy)-1-fluoro-3-hydroxynaphthalen-2-yl]-1λ^6,2,5-thiadiazolidine-1,1,3-trione], in assay [2], the IC50 is below 1 nM.
Same read-out and setting: for `N#Cc1c[nH]c(-c2ccc3cc(O)c(N4CC(=O)NS4(=O)=O)c(F)c3c2)n1` [Compound 321, 2-[8-fluoro-6-hydroxy-7-(1,1,4-trioxo-1λ^6,2,5-thiadiazolidin-2-yl)naphthalen-2-yl]-1H-imidazole-4-carbonitrile] the value was 1 to 10 nM.

The values are drawn from US20210009542A1 (Calico Life Sciences LLC, priority 2018, published 2021).
